Data on six compounds can be found in article PMC11638965, “Leveraging Dual-Ligase Recruitment to Enhance Protein Degradation via a Heterotrivalent Proteolysis Targeting Chimera” (Journal of the American Chemical Society, 2024).

Molecules are shown by their SMILES. Read-outs that look alike come from different tables or passages of the source.

In one assay the target is T1, BRD3 (Homo sapiens, UniProt Q15059).
T1 construct: HiBiT, is appended to the N-terminus of endogenous BRD2, BRD3, and BRD4; endogenous in cells
Briefly: Live cell kinetic HiBiT degradation assay, HiBiT-BRD3 HEK293 cells. The class given is cell-based. The settings on record: for DC50: HiBiT-BRD3 CRISPR knock-in HEK293 cells, live cell kinetic degradation, 24 h, read-out: Dmax 50 BRD3; for λmax BRD3 (degradation rate): HiBiT-BRD3 knock-in HEK293 cells. The procedure: HEK293 HiBiT-BRD2 (LgBiT stable), HEK293 HiBiT-BRD3 (LgBiT stable), and HEK293 HiBiT-BRD4 (LgBiT stable) were created using CRISPR/Cas9 to insert at HiBiT tag at the N-terminal genomic loci of BRD2, BRD3, or BRD4 in a cell line stably expressing LgBiT protein as described previously.[23]
For kinetic degradation experiments, HEK293 HiBiT-BRD2, 3, or 4 (LgBiT stable) cells and HEK293 HiBiT-BRD4 (LgBiT) CRBN KO and VHL KO cells were plated at 20,000 cells/well in DMEM +10% FBS in white 96-well tissue culture plates and allowed to adhere overnight. The next day, media was removed and 90 μL of prewarmed CO2-independent medium (Gibco) containing Endurazine (Promega) at a 1:100 dilution from stock was added. Plates were incubated at 37 °C for 3 h to allow luminescence to equilibrate. A threefold dilution series of each PROTAC at 10x the desired final concentration was prepared (with the amount of DMSO in each treatment condition kept constant). After luminescence equilibration, a preread luminescence measurement was taken (prior to compound addition) to allow for baseline normalization to account for possible plating differences. Cells were then treated with 10 μL of the prepared PROTAC dilution series (in triplicate or quadruplicate). Treated plates were placed in a GloMax Discover luminometer (Promega) prewarmed to 37 °C and luminescence measurements were obtained every 7 min for 24 h. Kinetic degradation plots were obtained by first normalizing time course luminescence readings in each well to the preread measurement, then to the average value of the DMSO only control at each time point. Data was analyzed using GraphPad Prism (version 8) and excel. Dmax values were identified as the lowest luminescence reading in each well. Rate constant values were calculated using a one phase exponential decay Y = (Y0-Plateau) e(K*^X) + Plateau using Prism (Y0 constrained to 1). Dmax 50 values were calculated by plotting Dmax as a function of concentration, then fitting plots using the following equation: [drawing 1] to determine IC50.
(HiBiT is a short tag that completes a luciferase, so light tracks the accessible tagged protein.)

A further assay has as its target BRD4 (Homo sapiens, UniProt O60885). Briefly: Live cell kinetic HiBiT degradation assay, HiBiT-BRD4 HEK293 cells (parental, CRBN KO, VHL KO). The class given is cell-based. The settings on record: for EC50: HiBiT-BRD4 CRISPR knock-in HEK293 cells, live cell kinetic degradation, 24 h, read-out: Dmax 50 BRD4; for λmax BRD4 (degradation rate): HiBiT-BRD4 knock-in HEK293 cells; for fold increase in degradation of BRD4 (Dmax 50) vs matched pair: 23 vs 1, 26 vs 23, 30 vs 2, HiBiT-BRD4 HEK293 cells. The gist of the method: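 Endogenous N-terminal HiBiT-BRD4 HEK293 cells stably expressing LgBiT (parental, CRBN KO, VHL KO) in CO2-independent medium with Endurazine, pre-equilibrated 3 h at 37 °C. Luminescence read every 7 min for 24 h after PROTAC addition (threefold series), normalized to pre-read and DMSO. Dmax = lowest reading; rate from one-phase decay; Dmax50 from Dmax-vs-concentration fit.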

Another assay deals with RKO WT cells. Briefly: cells. The class given is cell-based, human. Conditions: Homo sapiens, 316 pM to 10 μM.
The test system of a further assay is K562 cells. Briefly: Cell viability assay (CellTiter-Glo). Type of assay: cell-based, human. The settings on record: Homo sapiens; WT K562, 5.12 pM to 10 uM, n = 3 (Table S4).
The next assay has as its system KBM7 cells. Briefly: Cell viability assay (CellTiter-Glo). The settings on record: Homo sapiens, KBM-7; WT KBM7, 5.12 pM to 10 uM, n = 3 (Table S4). The class given is cell-based, human. A general note: Cellular ATP, detected with luciferase, serves as a proxy for viable cell number.
[1] abbreviates: WT RKO, n = 3 (Table S4), read-out: EC50 RKO.

T1 sequence (Q15059 whole entry): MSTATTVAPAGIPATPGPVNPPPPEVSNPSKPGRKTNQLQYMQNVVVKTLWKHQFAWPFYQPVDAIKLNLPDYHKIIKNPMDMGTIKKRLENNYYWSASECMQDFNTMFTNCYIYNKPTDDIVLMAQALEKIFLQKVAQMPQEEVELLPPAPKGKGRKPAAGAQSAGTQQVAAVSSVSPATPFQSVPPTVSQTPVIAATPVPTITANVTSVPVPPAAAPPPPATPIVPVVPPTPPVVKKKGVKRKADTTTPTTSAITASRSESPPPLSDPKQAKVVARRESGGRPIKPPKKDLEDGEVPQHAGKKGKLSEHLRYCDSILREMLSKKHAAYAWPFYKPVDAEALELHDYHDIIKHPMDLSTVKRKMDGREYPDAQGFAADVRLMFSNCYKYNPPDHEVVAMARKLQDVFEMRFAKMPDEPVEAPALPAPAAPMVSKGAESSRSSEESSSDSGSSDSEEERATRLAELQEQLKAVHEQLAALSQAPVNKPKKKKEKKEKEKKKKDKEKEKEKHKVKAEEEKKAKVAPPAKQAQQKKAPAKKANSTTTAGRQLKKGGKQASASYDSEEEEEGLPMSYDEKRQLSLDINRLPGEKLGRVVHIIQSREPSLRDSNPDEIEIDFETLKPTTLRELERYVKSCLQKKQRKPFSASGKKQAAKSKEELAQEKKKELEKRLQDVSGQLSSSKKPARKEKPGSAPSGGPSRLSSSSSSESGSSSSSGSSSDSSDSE

Consider `Cc1ncsc1-c1ccc(CNC(=O)[C@@H]2C[C@@H](O)CN2C(=O)[C@@H](NC(=O)COCC(C)(COCCOCCOCCNc2cccc3c2C(=O)N(C2CCC(=O)NC2=O)C3=O)COCCOCCOC(=O)C[C@@H]2N=C(c3ccc(Cl)cc3)c3c(sc(C)c3C)-n3c(C)nnc32)C(C)(C)C)cc1` (mixture of isomers) [AB3064 (25), (14S)-8-((2-(2-(2-((2-(2,6-dioxopiperidin-3-yl)-1,3-dioxoisoindolin-4-yl)amino)ethoxy)ethoxy)ethoxy)methyl)-14-((2S,4R)-4-hydroxy-2-((4-(4-methylthiazol-5-yl)benzyl)carbamoyl)pyrrolidine-1-carbonyl)-8,15,15-trimethyl-12-oxo-3,6,10-trioxa-13-azahexadecyl 2-((S)-4-(4-chlorophenyl)-2,3,9-trimethyl-6H-thieno[3,2-f][1,2,4]triazolo[4,3-a][1,4]diazepin-6-yl)acetate], for which the DC50 on BRD3 was found to be 8.1 nM. Moreover, at BRD3, the “λmax BRD3 (degradation rate)” value amounted to 1.69 h⁻¹. For the same compound, the EC50 at BRD4 turned out to be 31 nM; in the assay on RKO WT cells (setting [1]) it was 904 nM; in the assay with K562 cells, 369 nM; in the assay on KBM7 cells it was 168 nM. Moreover, the “λmax BRD4 (degradation rate)” value on BRD4 was 1.09 h⁻¹.

Consider `Cc1ncsc1-c1ccc(CNC(=O)[C@@H]2C[C@@H](O)CN2C(=O)[C@@H](NC(=O)COCC(C)(COCCOCCOCCNc2cc3c(cc2F)C(=O)N(C2CCC(=O)NC2=O)C3=O)COCCOCCOCCOC(=O)C[C@@H]2N=C(c3ccc(Cl)cc3)c3c(sc(C)c3C)-n3c(C)nnc32)C(C)(C)C)cc1` (mixture of isomers) [AB3063 (26), (17S)-11-((2-(2-(2-((2-(2,6-dioxopiperidin-3-yl)-6-fluoro-1,3-dioxoisoindolin-5-yl)amino)ethoxy)ethoxy)ethoxy)methyl)-17-((2S,4R)-4-hydroxy-2-((4-(4-methylthiazol-5-yl)benzyl)carbamoyl)pyrrolidine-1-carbonyl)-11,18,18-trimethyl-15-oxo-3,6,9,13-tetraoxa-16-azanonadecyl 2-((S)-4-(4-chlorophenyl)-2,3,9-trimethyl-6H-thieno[3,2-f][1,2,4]triazolo[4,3-a][1,4]diazepin-6-yl)acetate], for which the DC50 at BRD3 amounted to 1.5 nM. The “λmax BRD3 (degradation rate)” value at BRD3 was determined as 2.54 h⁻¹. In addition, the “fold increase in degradation of BRD4 (Dmax 50) vs matched pair” value at BRD4 was 3.7 fold. Moreover, the EC50 on BRD4 was determined as 3 nM; in the assay with RKO WT cells (72 h, 3 days, n = 3 (Figures 5 and 8C, Table S5), read-out: EC50 RKO WT), 260 nM; in the assay with RKO WT cells (setting [1]), 165 nM; with K562 cells it was 74.1 nM; in the assay on KBM7 cells, 21.2 nM. In addition, on BRD4, the “λmax BRD4 (degradation rate)” value stood at 1.98 h⁻¹.

For `Cc1ncsc1-c1ccc(CNC(=O)[C@@H]2C[C@@H](O)CN2C(=O)[C@@H](NC(=O)COCC(C)(COCCOCCOCCOC(=O)C[C@@H]2N=C(c3ccc(Cl)cc3)c3c(sc(C)c3C)-n3c(C)nnc32)COCCOCCOCCN2CCN(c3cccc4c3C(=O)N(C3CCC(=O)NC3=O)C4=O)CC2)C(C)(C)C)cc1` (mixture of isomers) [AB3029 (31), (17S)-11-((2-(2-(2-(4-(2-(2,6-dioxopiperidin-3-yl)-1,3-dioxoisoindolin-4-yl)piperazin-1-yl)ethoxy)ethoxy)ethoxy)methyl)-17-((2S,4R)-4-hydroxy-2-((4-(4-methylthiazol-5-yl)benzyl)carbamoyl)pyrrolidine-1-carbonyl)-11,18,18-trimethyl-15-oxo-3,6,9,13-tetraoxa-16-azanonadecyl 2-((S)-4-(4-chlorophenyl)-2,3,9-trimethyl-6H-thieno[3,2-f][1,2,4]triazolo[4,3-a][1,4]diazepin-6-yl)acetate], the DC50 on BRD3 stood at 6.2 nM. Further, the “λmax BRD3 (degradation rate)” value at BRD3 is 2.36 h⁻¹. For the same compound, the EC50 was 15 nM at BRD4, 1020 nM in the assay with RKO WT cells (setting [1]), 494 nM in the assay on K562 cells and 294 nM in the assay on KBM7 cells. For the same compound, the “λmax BRD4 (degradation rate)” value at BRD4 came to 1.99 h⁻¹.

`Cc1ncsc1-c1ccc(CNC(=O)[C@@H]2C[C@@H](O)CN2C(=O)[C@@H](NC(=O)COCC(C)(COCCOCCOCCNc2cccc3c2C(=O)N(C2CCC(=O)NC2=O)C3=O)COCCOCCOCCOC(=O)C[C@@H]2N=C(c3ccc(Cl)cc3)c3c(sc(C)c3C)-n3c(C)nnc32)C(C)(C)C)cc1` (mixture of isomers) [AB3062 (23), (17S)-11-((2-(2-(2-((2-(2,6-dioxopiperidin-3-yl)-1,3-dioxoisoindolin-4-yl)amino)ethoxy)ethoxy)ethoxy)methyl)-17-((2S,4R)-4-hydroxy-2-((4-(4-methylthiazol-5-yl)benzyl)carbamoyl)pyrrolidine-1-carbonyl)-11,18,18-trimethyl-15-oxo-3,6,9,13-tetraoxa-16-azanonadecyl 2-((S)-4-(4-chlorophenyl)-2,3,9-trimethyl-6H-thieno[3,2-f][1,2,4]triazolo[4,3-a][1,4]diazepin-6-yl)acetate]: at BRD3, the DC50 is 5.7 nM and the “λmax BRD3 (degradation rate)” value was 2.06 h⁻¹. On BRD4, the “fold increase in degradation of BRD4 (Dmax 50) vs matched pair” value is 3.4 fold, the EC50 came to 11 nM and the “λmax BRD4 (degradation rate)” value came out at 1.40 h⁻¹. Besides, the EC50 with RKO WT cells (setting [1]) was determined as 420 nM. The compound also returned an EC50 with K562 cells of 212 nM. In the assay with KBM7 cells, this compound gave an EC50 of 104 nM.

Consider `Cc1ncsc1-c1ccc([C@H](C)NC(=O)[C@@H]2C[C@@H](O)CN2C(=O)[C@@H](NC(=O)COCC(C)(COCCOCCOCCNc2cccc3c2C(=O)N(C2CCC(=O)NC2=O)C3=O)COCCOCCOCCOC(=O)C[C@@H]2N=C(c3ccc(Cl)cc3)c3c(sc(C)c3C)-n3c(C)nnc32)C(C)(C)C)cc1` (mixture of isomers) [AB3066 (24), (17S)-11-((2-(2-(2-((2-(2,6-dioxopiperidin-3-yl)-1,3-dioxoisoindolin-4-yl)amino)ethoxy)ethoxy)ethoxy)methyl)-17-((2S,4R)-4-hydroxy-2-(((S)-1-(4-(4-methylthiazol-5-yl)phenyl)ethyl)carbamoyl)pyrrolidine-1-carbonyl)-11,18,18-trimethyl-15-oxo-3,6,9,13-tetraoxa-16-azanonadecyl 2-((S)-4-(4-chlorophenyl)-2,3,9-trimethyl-6H-thieno[3,2-f][1,2,4]triazolo[4,3-a][1,4]diazepin-6-yl)acetate], for which the “λmax BRD3 (degradation rate)” value on BRD3 was 2.66 h⁻¹. The EC50 was found to be 3 nM at BRD4, 151 nM in the assay on RKO WT cells (setting [1]), 134 nM with K562 cells and 38 nM with KBM7 cells. Further, the “λmax BRD4 (degradation rate)” value at BRD4 is 2.16 h⁻¹.

Turning to `Cc1ncsc1-c1ccc(CNC(=O)[C@@H]2C[C@@H](O)CN2C(=O)[C@@H](NC(=O)COCC(C)(COCCOCCOCCOC(=O)C[C@@H]2N=C(c3ccc(Cl)cc3)c3c(sc(C)c3C)-n3c(C)nnc32)COCCOCCOCCN2CCN(c3cc4c(cc3F)C(=O)N(C3CCC(=O)NC3=O)C4=O)CC2)C(C)(C)C)cc1` (mixture of isomers) [AB3030 (32), (17S)-11-((2-(2-(2-(4-(2-(2,6-dioxopiperidin-3-yl)-6-fluoro-1,3-dioxoisoindolin-5-yl)piperazin-1-yl)ethoxy)ethoxy)ethoxy)methyl)-17-((2S,4R)-4-hydroxy-2-((4-(4-methylthiazol-5-yl)benzyl)carbamoyl)pyrrolidine-1-carbonyl)-11,18,18-trimethyl-15-oxo-3,6,9,13-tetraoxa-16-azanonadecyl 2-((S)-4-(4-chlorophenyl)-2,3,9-trimethyl-6H-thieno[3,2-f][1,2,4]triazolo[4,3-a][1,4]diazepin-6-yl)acetate], the DC50 at BRD3 turned out to be 1.7 nM. In addition, at BRD3, the “λmax BRD3 (degradation rate)” value is 2.97 h⁻¹. For the same compound, the EC50 was found to be 7.4 nM on BRD4, 402 nM with RKO WT cells (setting [1]), 192 nM with K562 cells and 78 nM in the assay on KBM7 cells. Further, at BRD4, the “λmax BRD4 (degradation rate)” value amounted to 2.19 h⁻¹.
